Reference: patent publication US11813304B2, “Compounds and methods for inhibiting phosphate transport” (Ardelyx, Inc., priority 2013, dated 2023)
Read-outs that look alike come from different tables or passages of the source. Where a SMILES comes first, the peptide text is derived from it. Bridges are numbered along the chain shown (N, C = ends).

Columns and labels:
[1] = test system: intestinal absorption of a phosphate meal from the gastrointestinal tract; test: Acute phosphate tracer uptake to plasma after intraduodenal co-administration of phosphate test meal and compound (Example 5); format: in vivo, rat; conditions: rats, 15 min after intraduodenal co-administration
Protocol: (§1) Compounds were tested for the ability to reduce the appearance of circulating radiolabeled phosphate subsequent to administration to the alimentary canal in rats. The rate of radiolabeled phosphate tracer accumulation in the blood of rats was taken as a surrogate for the intestinal absorption rate of a phosphate meal from the gastrointestinal tract. To this end, circulating radiolabeled phosphate was monitored after intragastric co-administration to rats of a phosphate tracer meal along with example compounds. However, since some of the compounds tested potentially had properties that may hinder this assay, such as having putative gastrointestinal motility effects (e.g., delaying gastric emptying) or being purposefully chemically unstable in the gastrointestinal tract, direct intraduodenal administrations of the phosphate tracer bolus was also performed at times.
Male Sprague-Dawley rats that were 8-weeks of age were purchased from Charles River Laboratories (Hollister, Calif.). To enable blood sampling, rats were purchased with catheters surgically implanted in the jugular vein by the vendor. For studies requiring intraduodenal administration, an additional catheter was surgically implanted by the vendor to allow for direct infusion to the lumen of the duodenum. […]
Blood was sampled from the jugular vein via implanted catheters from conscious rats following dosing and the radioisotope associated with the resulting plasma was determined by scintillation counting. The relative amount of phosphate uptake from the administered dose to the plasma was assessed using body weight estimation of total circulating plasma. […] The comparative amount of phosphate uptake at 15 min post-dose for each group (n=6) was expressed as a percentage relative to the study vehicle group (n=6) as mean±SEM. Statistical comparisons of the means of each test group compared to the mean of the vehicle group were determined by one-way analysis of variance followed by the Dunnett's posthoc test and P<0.05 was accepted as statistically significant (ns, not significant; *, P<0.05; **, P<0.01; and ***, P <0.001).

[2] = test system: intestinal absorption of a phosphate meal from the gastrointestinal tract; test: Acute phosphate tracer uptake to plasma after intragastric co-administration of phosphate test meal and compound (Example 5); format: in vivo, rat; conditions: rats, 15 min after intragastric co-administration
Protocol: as §1
Male Sprague-Dawley rats that were 8-weeks of age were purchased from Charles River Laboratories (Hollister, Calif.). To enable blood sampling, rats were purchased with catheters surgically implanted in the jugular vein by the vendor. For studies requiring intraduodenal administration, an additional catheter was surgically implanted by the vendor to allow for direct infusion to the lumen of the duodenum. Rats were fed a normal, grain-based chow (Harlan Teklad, Madison, Wis.; 2018 Teklad Global 18% Protein Rodent Diet) containing 0.65% P, 1% Ca, and 1.5 iu/g Vitamin D3 and given water ad libitum leading up to the study.
Following an overnight fast, rats were administered a phosphate solution containing [^33P]orthophosphate (PerkinElmer, Waltham, Mass.) as a tracer with or without test articles dispersed in the solution at the indicated dosage. This dosing solution typically contained 8 mM monobasic sodium phosphate (1.25 μCi [^33P]orthophosphate/μmol), 4 mM calcium chloride, 0.4% hydroxypropyl methocellulose (w/v), and 2% dimethylsulfoxide (w/v). The dosing solutions were prepared in water for intragastric gavage at 10 ml/kg and in saline if administered intraduodenally using a previously implanted catheter at 5 ml/kg as a bolus.
Blood was sampled from the jugular vein via implanted catheters from conscious rats following dosing and the radioisotope associated with the resulting plasma was determined by scintillation counting. The relative amount of phosphate uptake from the administered dose to the plasma was assessed using body weight estimation of total circulating plasma. See Bijsterbosch et al., Experientia. 37: 381-382, 1981 (The plasma volume of the Wistar rat in relation to the body weight). The comparative amount of phosphate uptake at 15 min post-dose for each group (n=6) was expressed as a percentage relative to the study vehicle group (n=6) as mean±SEM. Statistical comparisons of the means of each test group compared to the mean of the vehicle group were determined by one-way analysis of variance followed by the Dunnett's posthoc test and P<0.05 was accepted as statistically significant (ns, not significant; *, P<0.05; **, P<0.01; and ***, P <0.001).

[3] = test system: phosphate absorption/uptake in the small intestine; test: 33P uptake to plasma in rats simultaneously dosed with 33P and test compound (Examples 2-4); format: in vivo, rat; conditions: for uptake of phosphate in the gastrointestinal tract of rats: figure legends FIGS. 1-3
Protocol: Experiments were performed to determine whether guanylate cyclase C (GC-C) receptor agonists can decrease phosphate absorption/uptake in the small intestine as measured by ^33P uptake. Rats were simultaneously dosed with ^33P and linaclotide as shown below:
Blood was collected at 5, 15, 30, 45, and 60 minutes post-^33P administration and plasma scintillation counting was performed.
Experiments were performed to determine whether other classes of drugs can decrease phosphate absorption/uptake in the small intestine as measured by ^33P uptake. Rats were simultaneously dosed with ^33P and either an imidazoline subtype 1 (I1) receptor agonist (moxonidine) or an adenylate cyclase agonist (the water-soluble forskolin analog NKH477) as shown below:
Experiments were performed to determine whether increasing intracellular calcium (Ca^++) by different mechanisms can also decrease phosphate absorption in the small intestine as measured by ^33P uptake. Rats were simultaneously dosed with ^33P and test compounds as shown below: […]

P2Y2 receptor = P2Y2 receptor (Homo sapiens, UniProt P41231); conditions: cited from earlier work; for EC50: agonist potency
[4] = Rattus norvegicus, po, 0.25 h, dose 10 mg/kg, read-out: Uptake of phosphate tracer to plasma, % of study vehicle

Chain of P2Y2 receptor (P41231 whole entry): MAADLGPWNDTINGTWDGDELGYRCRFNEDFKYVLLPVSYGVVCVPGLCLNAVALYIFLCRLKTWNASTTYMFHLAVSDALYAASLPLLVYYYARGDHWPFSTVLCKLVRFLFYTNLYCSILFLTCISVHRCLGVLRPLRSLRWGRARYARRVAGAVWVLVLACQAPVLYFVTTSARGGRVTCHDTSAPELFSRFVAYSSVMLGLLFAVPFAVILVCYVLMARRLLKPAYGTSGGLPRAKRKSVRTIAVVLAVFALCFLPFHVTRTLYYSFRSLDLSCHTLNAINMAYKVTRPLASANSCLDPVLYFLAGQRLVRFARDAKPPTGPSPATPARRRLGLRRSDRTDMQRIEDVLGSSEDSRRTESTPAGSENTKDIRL

Molecule: CSc1nc(N)c2ncn([C@@H]3O[C@H](COP(=O)(O)OP(=O)(O)O)[C@@H](O)[C@H]3O)c2n1 [2-methylthio-ADP]
- Uptake of phosphate tracer to plasma, % of study vehicle ([1]; dose 10 mg/kg): >75%

Molecule: COCCCN1CCC(NC(=O)c2cc(Cl)c(N)c3c2OCC3)CC1 [Prucalopride, prucalopride]
- response vs control in vivo at 10 mg/kg [2, 4]: > 75%

Molecule: C[C@@H]1NC(=O)[C@@H]2CCCN2C(=O)[C@H](CC(N)=O)NC(=O)[C@@H]2CSSC[C@H](N)C(=O)N[C@H]3CSSC[C@H](NC1=O)C(=O)N[C@@H]([C@@H](C)O)C(=O)NCC(=O)N[C@H](C(=O)N[C@@H](Cc1ccc(O)cc1)C(=O)O)CSSC[C@H](NC(=O)[C@H](Cc1ccc(O)cc1)NC(=O)[C@H](CCC(=O)O)NC3=O)C(=O)N2 [Linaclotide] (H-CCEYCCNPACTGCY-OH; disulfide 1-6, 2-10, 5-13)
- uptake of phosphate in the gastrointestinal tract of rats [3]: reduces
- absorption of phosphate in the gastrointestinal tract (plasma 33P) ([3]; rats, both doses, 0.1 and 0.3 mg/kg, blood 5-60 min post-33P): decreased
- Uptake of phosphate tracer to plasma, % of study vehicle ([2]; dose 0.03 mg/kg): 50-75%
- Uptake of phosphate tracer to plasma, % of study vehicle ([2]; dose 0.1 mg/kg): 50-75%
- Uptake of phosphate tracer to plasma, % of study vehicle ([2]; dose 0.3 mg/kg): 25-50%

Molecule: CCOC(=O)C1=C[C@]2(CC)CCCN3CCc4c(n1c1ccccc41)[C@@H]32 [Vinpocetine, vinpocetine]
- response vs control in vivo at 1 mg/kg ([2]; Rattus norvegicus, po, 0.25 h, dose 1 mg/kg + 0.03 mg/kg Linacolitde, read-out: Uptake of phosphate tracer to plasma, % of study vehicle): 50 to 75%
- response vs control in vivo at 1 mg/kg ([2]; Rattus norvegicus, po, 0.25 h, dose 1 mg/kg, read-out: Uptake of phosphate tracer to plasma, % of study vehicle): > 75%
- response vs control in vivo at 10 mg/kg ([2]; Rattus norvegicus, po, 0.25 h, dose 10 mg/kg + 0.03 mg/kg Linacolitde, read-out: Uptake of phosphate tracer to plasma, % of study vehicle): 25 to 50%
- response vs control in vivo at 10 mg/kg [2, 4]: > 75%

Molecule: N[C@@H]1[C@H](O)[C@@H](COP(=O)(O)OP(=O)(O)OP(=O)(O)O)O[C@H]1n1ccc(=O)[nH]c1=S [2′-amino-2-thio-UTP]
- selectivity, P2Y2-selective versus P2Y4 (P2Y2 receptor; P2Y2 versus P2Y4): 300 fold
- EC50 (P2Y2 receptor): 0.008 µM

Molecule: O=c1ccn([C@@H]2O[C@H](COP(=O)(O)OP(=O)(O)OP(=O)(O)OP(=O)(O)OC[C@H]3O[C@@H](n4ccc(=O)[nH]c4=O)[C@H](O)[C@@H]3O)[C@@H](O)[C@H]2O)c(=O)[nH]1 [Up4U]
- uptake of phosphate in the gastrointestinal tract of rats [3]: reduces
- 33P uptake/absorption ([3]; rats, 15 mg/kg): significantly decreased
- response vs control in vivo at 5 mg/kg ([2]; Rattus norvegicus, po, 0.25 h, dose 5 mg/kg, read-out: Uptake of phosphate tracer to plasma, % of study vehicle): > 75%
- response vs control in vivo at 15 mg/kg ([2]; Rattus norvegicus, po, 0.25 h, dose 15 mg/kg, read-out: Uptake of phosphate tracer to plasma, % of study vehicle): > 75%
- response vs control in vivo at 50 mg/kg ([2]; Rattus norvegicus, po, 0.25 h, dose 50 mg/kg, read-out: Uptake of phosphate tracer to plasma, % of study vehicle): > 75%

Molecule: COc1nc(C)nc(Cl)c1N=C1NCCN1 [Moxonidine, moxonidine]
- uptake of phosphate in the gastrointestinal tract of rats [3]: reduce
- response vs control in vivo at 2 mg/kg ([2]; Rattus norvegicus, po, 0.25 h, dose 2 mg/kg, read-out: Uptake of phosphate tracer to plasma, % of study vehicle): 50 to 75%
- response vs control in vivo at 6 mg/kg ([2]; Rattus norvegicus, po, 0.25 h, dose 6 mg/kg, read-out: Uptake of phosphate tracer to plasma, % of study vehicle): 25 to 50%

Molecule: CCCCC(C)(C)[C@H](O)/C=C/[C@H]1[C@H](O)CC(=O)[C@@H]1C/C=C\CCCC(=O)O [16,16-dimethyl-PGE2, 16,16-dimethyl PGE2]
- Uptake of phosphate tracer to plasma, % of study vehicle ([2]; dose 3 μg/kg): >75%

Molecule: COc1ccc2[nH]cc(CCNC(C)=O)c2c1 [Melatonin, N-acetyl-5-methoxytryptamine]
- response vs control in vivo at 10 mg/kg [2, 4]: 50 to 75%

Molecule: Nc1nc(-c2nn(Cc3ccccc3F)c3ncccc23)ncc1C1CC1 [Bay 41-2271]
- Uptake of phosphate tracer to plasma, % of study vehicle ([2]; dose 10 mg/kg): >75%

Molecule: CC(C[N+](C)(C)C)OC(N)=O (stereo not drawn) [Bethanechol, carbamoyl-β-methlycholine]
- response vs control in vivo at 10 mg/kg [2, 4]: > 75%

Molecule: O=C(O)CCCCN(CCc1ccccc1OCc1ccc(CCc2ccccc2)cc1)Cc1ccc(C(=O)O)cc1 [Bay 58-2667]
- Uptake of phosphate tracer to plasma, % of study vehicle ([2]; dose 10 mg/kg): 50-75%

Molecule: C1COC(NC(C2CC2)C2CC2)=N1 [Rilmenidine, rilmenidine]
- response vs control in vivo at 3 mg/kg ([2]; Rattus norvegicus, po, 0.25 h, dose 3 mg/kg, read-out: Uptake of phosphate tracer to plasma, % of study vehicle): > 75%

Molecule: NC[C@@H]1O[C@H](c2ccccc2)Cc2c1ccc(O)c2O [A68930]
- Uptake of phosphate tracer to plasma, % of study vehicle ([2]; dose 10 mg/kg): 50-75%

Molecule: 6-guanyl NECA
- Uptake of phosphate tracer to plasma, % of study vehicle ([2]; dose 10 mg/kg): >75%

Molecule: O=c1[nH]c(=S)ccn1[C@@H]1O[C@H](COP(=O)(O)OP(=O)(O)C(F)(F)P(=O)(O)O)[C@@H](O)[C@H]1O [PSB1114]
- Uptake of phosphate tracer to plasma, % of study vehicle ([1]; dose 15 mg/kg): >75%

Molecule: O=c1[nH]c(=O)n([C@@H]2O[C@H](COP(=O)(O)OP(=O)(O)OP(=O)(O)O)[C@@H](O)[C@H]2O)cc1I [5-iodo-UTP]
- EC50 (P2Y2 receptor): 0.83 µM

Molecule: N#Cc1c(N)nc(SCC(N)=O)c(C#N)c1-c1ccc(OCC2CC2)cc1 [BAY 60-6583]
- Uptake of phosphate tracer to plasma, % of study vehicle ([2]; dose 10 mg/kg): >75%

Molecule: CC[C@H](C)[C@@H]1NC(=O)[C@H](CCCNC(=N)N)NC(=O)[C@H](CC(=O)O)NC(=O)[C@H](CCSC)NC(=O)[C@H](CCCNC(=N)N)NC(=O)CNC(=O)CNC(=O)[C@H](Cc2ccccc2)NC(=O)[C@@H](NC(=O)[C@H](CO)NC(=O)[C@H](CO)NC(=O)[C@H](CCCNC(=N)N)NC(=O)[C@H](CCCNC(=N)N)NC(=O)[C@H](CC(C)C)NC(=O)[C@@H](N)CO)CSSC[C@@H](C(=O)N[C@@H](CC(N)=O)C(=O)N[C@@H](CO)C(=O)N[C@@H](Cc2ccccc2)C(=O)N[C@@H](CCCNC(=N)N)C(=O)N[C@@H](Cc2ccc(O)cc2)C(=O)O)NC(=O)CNC(=O)[C@H](CC(C)C)NC(=O)CNC(=O)[C@H](CO)NC(=O)[C@H](CCC(N)=O)NC(=O)[C@H](C)NC(=O)CNC1=O [Atrial natriuretic peptide]
- Uptake of phosphate tracer to plasma, % of study vehicle ([1]; dose 0.2 mg/kg): >75%

Molecule: CCN[C@H]1C[C@H](C)S(=O)(=O)c2sc(S(N)(=O)=O)cc21 [Dorzolamide, dorzolamide]
- response vs control in vivo at 20 mg/kg ([2]; Rattus norvegicus, po, 0.25 h, dose 20 mg/kg, read-out: Uptake of phosphate tracer to plasma, % of study vehicle): 50 to 75%
